The values that follow come from paper PMC5979539 (International Journal of Molecular Sciences, 2018).

One data set relates to MAA. The data set can be described thus: SPR binding and kinetics of MAA on immobilized sialic acid glycoprobes. On the set-up: species or system Maackia amurensis. A general note: In SPR one partner is held on a chip, and binding of the other changes the refractive index at the surface.
The target of another data set is T1, PDC-109 (Bos taurus, UniProt P02784).
T1 construct: PDC-109, purified from bull seminal plasma, was kindly donated by J.J. Calvete; tissue gift of J.J. Calvete; host or cells: bull seminal plasma
T1 sequence (P02784 26-134): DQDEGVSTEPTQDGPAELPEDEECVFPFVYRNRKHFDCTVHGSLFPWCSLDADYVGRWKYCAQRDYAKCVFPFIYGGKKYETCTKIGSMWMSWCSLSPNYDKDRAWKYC
The data set can be described thus: SPR binding profile and kinetics of PDC-109 on immobilized neo-glycoprobes. The conditions noted are these: immobilized glycoprobe, PDC-109 6.25 to 100 μM, HBS-P pH 7.4, 25 °C, 1:1 Langmuir model. On the set-up: species or system bovine. From the text:
While the lipid selectivity and kinetics of PDC-109 has been characterized in considerable detail, its interaction with carbohydrate epitopes remains largely uncharted, despite its potential role in sperm reservoir formation in the female genital tract. We have therefore performed SPR experiments with PDC-109 and the most relevant mammalian glycotopes, particularly those containing Fuc epitopes. Once SPR sensor chips were functionalized with the different synthetic glycoprobes and evaluated with specific lectins (Section 2.1.2) they were used to characterize both qualitatively and quantitatively the interaction of PDC-109. For kinetic analysis, several concentrations in the 6.25 to 100 μM range were analyzed and a 1:1 Langmuir binding model was chosen for sensorgram fitting.
Data dispersion was attributable to the unusual sensorgrams observed, reflecting a complex binding event, particularly in the association phase of PDC-109. […] In a conventional, straightforward binding event, the response—i.e., the signal rise over time, reflecting protein binding to the sensor surface—reaches a constant value once equilibrium is established, and remains so until the protein solution passed over the sensor chip is replaced with buffer, giving way to the spontaneous dissociation process and subsequent surface regeneration.
Binding experiments were performed at 25 °C and 30 μL/min flow rate. […] Sensor surface was regenerated with a 60 μL-injection of specific carbohydrate (10 mM lac, 500 mM αMe-Man, 0.5 M αMe-Fuc, and 10 mM Sia) followed by a 60 μL-injection of NaCl 1 M.

Data set [1] deals with the molecule itself. Description: SPR; PDC-109 immobilised on a CM5 chip (1645 RU, 10 mM NaOAc pH 4); 50 µM PDC-109 passed over at 20 µL/min; regeneration with 1 M NaCl; two replicates.
The next data set relates to PC membranes. Conditions: cited from earlier work. From the text:
Despite the above-discussed limitations, we were able to determine the SPR binding parameters of PDC-109. Affinity constants (Table 4) indicated weak to moderate binding for carbohydrates, at least if compared to the considerably higher affinity (KA~10^7 M^−1) found for PC membranes.

In the case of “Neu5Ac-α2,3-Gal-β1,4-GlcNAc-N[Me]-O-Aoa-GFKKG-amide [Neu5Ac-α2,3-Gal-β1,4-GlcNAc-Aoa(m)-GFKKG, neo-glycoprobe: Neu5Ac-α2,3-Gal-β1,4-GlcNAc oxime-ligated to the peptide module N[Me]-O-Aoa-GFKKG]”, the “carbohydrate specificity of MAA in words” value with MAA (SPR binding responses on sialic acid glycoprobe chip) is “recognized only”. The ka in the data set with MAA (SPR, immobilized glycoprobe, MAA 250 nM to 1.9 μM, HBS-P pH 7.4 + CaCl2 5 mM, MnCl2 1 mM, 1:1 Langmuir model) was 5.55 × 10^3 M^−^1 s^−^1; on PDC-109 (30 μL/min, 3 to 6 repeat experiments, CV exceeding 50% in particular cases), 99.9 M⁻¹ s⁻¹. Moreover, the KA with MAA (SPR, immobilized glycoprobe, MAA 250 nM to 1.9 μM, 1:1 Langmuir model) is 9.12 × 10^5 M^−^1. In addition, the “derived association (KA) constant” value at PDC-109 was determined as 12400 M⁻¹. For the same molecule, at PDC-109 (3 to 6 repeat experiments), the kd stood at 0.00477 s⁻¹.

B1: PDC-109 (BSP-A1/-A2), main protein of bovine seminal plasma (natural protein, UniProt P02784 26-134, looked up)
chain: T1 sequence (P02784 26-134)
modifications: mixture of the glycosylated (O-linked trisaccharide, Neu5Ac-Hex-HexNAc) and non-glycosylated forms
notes: Native preparation; two closely spaced bands on SDS-PAGE (glycosylated and non-glycosylated forms); The same preparation was both immobilised and flowed over the chip; also called BSP-A2; source: purified from bull seminal plasma (donated by J.J. Calvete)
For B1, in data set [1], the binding result was “binds”.

B2: PDC-109: main protein of bovine seminal plasma, purified from bull seminal plasma; glycosylated and non-glycosylated forms (protein)
chain: T1 sequence (P02784 26-134)
modifications: mixture of the glycosylated (O-linked trisaccharide, Neu5Ac-Hex-HexNAc) and non-glycosylated forms
Turning to B2, the “KA for PC membranes” value in the data set with PC membranes is ~ 10^7 M^−1.
